# Values quoted from earlier work in patent US20130071904A1, “ACETATE-RESISTANT YEAST STRAIN FOR THE PRODUCTION OF A FERMENTATION PRODUCT” (priority 2010, published 2013).
# System: Saccharomyces cells
# Conditions: Pons et al. 1984
compound,measurement,value
CC(=O)O [Acetate],effect on growth of Saccharomyces cells,inhibits the growth
